Measurements: patent publication US20230234936A1, “COMPOUND FOR TARGETING AND DEGRADING PROTEIN, AND PREPARATION METHOD THEREFOR AND USE THEREOF” (SHANGHAI LEADINGTAC PHARMACEUTICAL CO., LTD., priority 2020, published 2023)

Assays:
Format in all cases: cell-based
[1] = molecular target: T1, IRAK4 protein in THP-1 cells (Homo sapiens, UniProt Q9NWZ3); assay: Degradation of IRAK4 in THP-1 cells (Western blot); settings: 24 hours, compound 1-3000 nM
T1 construct: endogenous in cells; host or cells: THP-1
T1 sequence (Q9NWZ3 1-460): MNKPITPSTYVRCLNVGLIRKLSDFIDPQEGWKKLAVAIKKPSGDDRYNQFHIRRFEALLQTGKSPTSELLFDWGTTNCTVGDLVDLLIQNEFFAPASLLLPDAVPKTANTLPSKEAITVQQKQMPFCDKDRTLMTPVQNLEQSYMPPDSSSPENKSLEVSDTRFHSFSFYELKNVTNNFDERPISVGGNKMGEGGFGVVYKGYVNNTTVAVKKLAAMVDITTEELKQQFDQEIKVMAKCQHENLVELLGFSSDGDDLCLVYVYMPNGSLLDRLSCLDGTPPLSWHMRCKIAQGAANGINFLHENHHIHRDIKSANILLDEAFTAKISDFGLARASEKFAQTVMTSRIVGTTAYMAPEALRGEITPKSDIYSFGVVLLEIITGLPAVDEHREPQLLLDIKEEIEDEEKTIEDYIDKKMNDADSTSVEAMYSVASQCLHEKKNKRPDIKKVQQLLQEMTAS
Outline: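 THP-1 cells (5×10^5/well) treated 24 h with compound at 1–3000 nM final. IRAK4 in lysates quantified by Western blot, normalized to internal reference and compared with control to give degradation rate; DC50 and Dmax from nonlinear fit of log concentration.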

IKZF3 in L363 cells = molecular target: T2, IKZF3 in L363 cells (Homo sapiens, UniProt Q96SW2+Q9UKT9); assay: Degradation of IKZF3 in L363 cells (Western blot); settings: 1000 nM, 16 hours
T2 construct: endogenous in cells; host or cells: L363
T2 sequence (Q9UKT9 whole entry): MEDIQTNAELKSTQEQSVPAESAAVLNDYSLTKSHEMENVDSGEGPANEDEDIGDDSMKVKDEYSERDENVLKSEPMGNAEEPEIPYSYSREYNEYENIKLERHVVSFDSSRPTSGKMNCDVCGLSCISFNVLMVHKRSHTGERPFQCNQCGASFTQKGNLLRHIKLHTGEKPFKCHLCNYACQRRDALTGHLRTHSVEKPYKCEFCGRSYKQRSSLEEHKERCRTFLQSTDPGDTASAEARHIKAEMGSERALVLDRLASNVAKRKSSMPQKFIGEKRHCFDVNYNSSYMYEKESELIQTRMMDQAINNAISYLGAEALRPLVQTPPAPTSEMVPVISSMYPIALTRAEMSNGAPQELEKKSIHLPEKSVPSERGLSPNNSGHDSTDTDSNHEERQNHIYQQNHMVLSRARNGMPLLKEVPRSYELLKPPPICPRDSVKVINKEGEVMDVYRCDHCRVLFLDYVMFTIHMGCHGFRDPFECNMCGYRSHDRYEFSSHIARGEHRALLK
T2 sequence (Q96SW2 whole entry): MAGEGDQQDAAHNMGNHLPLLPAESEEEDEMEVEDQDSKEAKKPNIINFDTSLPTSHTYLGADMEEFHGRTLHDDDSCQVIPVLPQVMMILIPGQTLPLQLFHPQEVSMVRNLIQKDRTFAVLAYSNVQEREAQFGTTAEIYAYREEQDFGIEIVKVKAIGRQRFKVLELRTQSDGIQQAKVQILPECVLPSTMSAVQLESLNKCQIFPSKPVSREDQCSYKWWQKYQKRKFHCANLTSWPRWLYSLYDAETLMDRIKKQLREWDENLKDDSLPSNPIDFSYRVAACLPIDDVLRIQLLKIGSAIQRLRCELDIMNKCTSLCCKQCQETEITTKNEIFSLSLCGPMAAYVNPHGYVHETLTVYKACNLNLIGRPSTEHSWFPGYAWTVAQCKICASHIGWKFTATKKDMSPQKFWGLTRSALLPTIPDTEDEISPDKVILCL
T2 sequence (Q16531 whole entry partner): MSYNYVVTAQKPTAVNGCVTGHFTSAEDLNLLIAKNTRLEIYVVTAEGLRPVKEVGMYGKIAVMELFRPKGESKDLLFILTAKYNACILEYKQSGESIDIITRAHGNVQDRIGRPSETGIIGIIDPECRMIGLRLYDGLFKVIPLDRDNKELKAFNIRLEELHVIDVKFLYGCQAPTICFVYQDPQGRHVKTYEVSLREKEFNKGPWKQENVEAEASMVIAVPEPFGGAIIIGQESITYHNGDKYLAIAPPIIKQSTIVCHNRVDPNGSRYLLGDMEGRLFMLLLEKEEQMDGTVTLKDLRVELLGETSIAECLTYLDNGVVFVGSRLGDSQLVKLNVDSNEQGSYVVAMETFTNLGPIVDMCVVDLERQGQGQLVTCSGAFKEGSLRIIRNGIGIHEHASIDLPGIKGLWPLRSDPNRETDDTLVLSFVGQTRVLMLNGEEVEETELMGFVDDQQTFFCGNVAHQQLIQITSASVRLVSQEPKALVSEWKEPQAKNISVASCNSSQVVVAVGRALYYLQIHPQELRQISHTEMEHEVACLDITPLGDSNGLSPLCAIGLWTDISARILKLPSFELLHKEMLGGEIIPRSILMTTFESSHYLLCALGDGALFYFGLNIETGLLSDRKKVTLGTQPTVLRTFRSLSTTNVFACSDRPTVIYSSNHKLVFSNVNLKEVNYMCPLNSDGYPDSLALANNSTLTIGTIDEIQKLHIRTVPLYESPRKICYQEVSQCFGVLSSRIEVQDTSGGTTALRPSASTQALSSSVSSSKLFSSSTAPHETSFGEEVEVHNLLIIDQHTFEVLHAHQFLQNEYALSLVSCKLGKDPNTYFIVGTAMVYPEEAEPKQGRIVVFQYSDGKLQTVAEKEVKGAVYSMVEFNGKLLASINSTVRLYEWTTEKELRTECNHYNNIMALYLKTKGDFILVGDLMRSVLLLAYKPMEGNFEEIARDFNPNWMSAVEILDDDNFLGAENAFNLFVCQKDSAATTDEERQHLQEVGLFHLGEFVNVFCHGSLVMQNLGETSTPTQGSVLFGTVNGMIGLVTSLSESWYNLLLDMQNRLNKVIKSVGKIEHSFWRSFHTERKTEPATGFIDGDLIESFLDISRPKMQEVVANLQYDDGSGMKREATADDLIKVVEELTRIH
Protocol: (§1) The 24-well cell culture plate was inoculated with 0.95 mL L363 cells (Nanjing Co-bioer) per well with a cell density of 6×10^5 cells/well. The cell plate was placed in a 5% carbon dioxide incubator and cultured at 37° C. for 8 hours, then 50 μL of compound solution was added. The final concentration of the compound was 1000 nM. After continuing to culture for 16 hours, the cells were collected into a 1.5 mL centrifuge tube and centrifuged at 3000 rpm and 4° C. for 5 minutes. Cell precipitation was cleaned twice with 1×DPBS, resuspended cells were lysed with 100 μL lysate (cell lysate was Western and IP cell lysate (Beyotime), supplemented with 1 mM mixture of phenylmethylsulfonyl fluoride and protease inhibitor (Beyotime)), left on ice for 30 minutes, then centrifuged at 14000 g at 4° C. for 10 minutes, and the supernatant was taken to detect IKZF1 and IKZF3 protein level by Western blot.
(§2) The total protein concentration in the supernatant of cell lysis was determined by BCA protein quantitative kit (Tiangen). According to the concentration of total protein detected by BCA, the supernatant was adjusted to 0.2 μg/μL with PBS and 5× SDS-PAGE protein loading buffer (Beyotime), bathed in water at 100° C. for 10 minutes, then placed in ice bath for 5 minutes, centrifuged at 14000 g and 4° C. for 5 minutes, and then collected as WB loading sample. Prefabricated glue (KeyGEN) was used for protein electrophoresis with a loading amount of 10 μL (total protein 2 μg). After Tris-MOPS-SDS electrophoresis solution (Adamas), 120V constant pressure electrophoresis was performed. After electrophoresis, the protein on the adhesive strip was transferred to PVDF membrane with a constant current of […] for 50 minutes. After the membrane was transferred, the membrane was incubated in 5% bovine serum albumin solution for 2 hours at room temperature. After blocking, PVDF membranes were incubated with IKZF1 primary antibody (CST) and IKZF3 primary antibody (Abcam) overnight at 4°, the membranes were washed with TBST buffer (2.4 g Tris, 8.8 g NaCl, 1.5 mL Tween 20, pH adjusted to 7.4, constant volume to IL) for 30 minutes, incubated with secondary antibody (Abcam) for 2 hours at room temperature, finally incubated with Clarity Western ECL Substrate(BIO-RAD) for 5 minutes for luminescence development, chemiluminescence imaging system (Clinx, chemiScope 6200 Touch) for development and protein mapping photography. The protein map was analyzed by Clinx chemiluminescence analysis software for grayscale values. Using the formula: grayscale correction value=(target protein grayscale value/corresponding internal reference grayscale value)×10^3, the grayscale correction value of each sample was calculated. The degradation rate was calculated by comparing with the grayscale correction value of the control group.

IKZF1 in L363 cells = molecular target: T3, IKZF1 in L363 cells (Homo sapiens, UniProt Q13422+Q96SW2); assay: Degradation of IKZF1 in L363 cells (Western blot); settings: 1000 nM, 16 hours
T3 construct: endogenous in cells; host or cells: L363
T3 sequence (Q13422 whole entry): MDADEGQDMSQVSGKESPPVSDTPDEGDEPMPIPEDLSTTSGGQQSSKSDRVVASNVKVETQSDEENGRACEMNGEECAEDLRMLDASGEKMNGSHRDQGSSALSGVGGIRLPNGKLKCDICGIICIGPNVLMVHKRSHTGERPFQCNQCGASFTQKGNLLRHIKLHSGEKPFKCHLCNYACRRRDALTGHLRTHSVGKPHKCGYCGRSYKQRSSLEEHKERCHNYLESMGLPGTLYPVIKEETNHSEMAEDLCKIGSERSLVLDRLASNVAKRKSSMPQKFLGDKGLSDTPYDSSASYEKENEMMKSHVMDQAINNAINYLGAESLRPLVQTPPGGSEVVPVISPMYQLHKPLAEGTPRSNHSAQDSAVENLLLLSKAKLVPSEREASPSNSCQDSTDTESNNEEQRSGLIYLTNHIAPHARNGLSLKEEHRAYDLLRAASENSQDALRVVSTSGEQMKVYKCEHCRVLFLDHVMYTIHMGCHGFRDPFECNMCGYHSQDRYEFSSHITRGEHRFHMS
T3 sequence (Q96SW2 whole entry): as the sequence (Q96SW2 whole entry) above
T3 sequence (Q16531 whole entry partner): as the sequence (Q16531 whole entry partner) above
Protocol: as §1, §2

| Compound | DC50 [1] [nM] | Dmax [1] [%] | IKZF3 degradation rate (IKZF3 in L363 cells) [%] | IKZF1 degradation rate (IKZF1 in L363 cells) [%] |
| --- | --- | --- | --- | --- |
| CN(CC1CCN(c2cccc3c2C(=O)N(C2CCC(=O)NC2=O)C3=O)CC1)C[C@H]1CC[C@H](n2cc3cc(NC(=O)c4cccc(C(F)(F)F)n4)c(C(C)(C)O)cc3n2)CC1 (some centres unmarked) [Control group 3, N-(2-((1r,4r)-4-((((1-(2-(2,6-dioxopiperidin-3-yl)-1,3-dioxoisoindolin-4-yl)piperidin-4-yl)methyl) (methyl)amino)methyl)cyclohexyl)-6-(2-hydroxyprop-2-yl)-2H-indazol-5-yl)-6-(trifluoromethyl) pyridinecarboxamide, reference compound] | 19.8 | 75.3 | 92.8 ± 5.0 | 97.2 ± 2.6 |
| CC(C)(O)c1cc2nn(C3CCN(CC4CCC5(CC4)CCN(C(=O)c4ccc(Cl)c(N6CCC(=O)NC6=O)c4)CC5)CC3)cc2cc1NC(=O)c1cccc(C(F)(F)F)n1 [Example 31, N-(2-(1-((3-(4-chloro-3-(2,4-dioxotetrahydro-pyrimidin-1 (2H)-yl)benzoyl)-3-azaspiro [5.5]undec-9-yl)methyl)piperdin-4-yl)-6-(2-hydroxyprop-2-yl)-2H-indazol-5-yl)-6-(trifluoro-methyl) pyridinecarbox-amide] | 2.6 | 97.1 | 17.8 ± 3.6 | 8.4 ± 13.9 |
| COc1cc2nn(C3CCN(CC4CCN(CCOc5ccc6c(c5)C(=O)N(C5CCC(=O)NC5=O)C6=O)CC4)CC3)cc2cc1NC(=O)c1cccc(C(F)(F)F)n1 (centres unmarked) [Control group 2, N-(2-(1-((1-(2-((2-(2,6-dioxopiperidin-3-yl)-1,3-dioxoisoindol-5-yl)oxy)ethyl)piperidin-4-yl)methyl)piperidin-4-yl)-6-methoxy-2H-indazol-5-yl)-6-(trifluoromethyl) pyridinecarboxamide, reference compound] | 40.6 |  | 71.2 ± 5.7 | 47.5 ± 9.7 |
